Source: patent publication US20150258059A1, “ANTIMICROBIAL AND RADIOPROTECTIVE COMPOUNDS” (BioDiem, Ltd, priority 2001, published 2015)
Read-outs that look alike come from different tables or passages of the source.

Experiments:
Format in all cases: cell-based
Alkaligenes sp. B-689 = assay: Sensitivity of strains: suppression of growth; conditions: Compound (1) 1.0%; antibiotics disc method
Escherichia coli M-17 = assay: Sensitivity of strains: suppression of growth; conditions: Compound (1) 1.0%; antibiotics disc method
[1] = test system: Klebsiella pneumoniae M-A21; assay: Sensitivity of strains: suppression of growth; conditions: Compound (1) 1.0%; antibiotics disc method
Escherichia coli B-65 = assay: Sensitivity of strains: suppression of growth; conditions: Compound (1) 1.0%; antibiotics disc method
Acinetobacter B-681 = assay: Sensitivity of strains: suppression of growth; conditions: Compound (1) 1.0%; antibiotics disc method
[2] = test system: Citrobacter diversus B-678; assay: Sensitivity of strains: suppression of growth; conditions: Compound (1) 1.0%; antibiotics disc method
[3] = test system: Klebsiella pneumoniae M-248; assay: Sensitivity of strains: suppression of growth; conditions: Compound (1) 1.0%; antibiotics disc method
[4] = test system: γ-hemolytic streptococcus B-672; assay: Sensitivity of strains: suppression of growth; conditions: Compound (1) 1.0%; antibiotics disc method
Acinetobacter B-676 = assay: Sensitivity of strains: suppression of growth; conditions: Compound (1) 1.0%; antibiotics disc method
[5] = test system: Staphylococci epidermidis D-513; assay: Sensitivity of strains: suppression of growth; conditions: Compound (1) 1.0%; antibiotics disc method
[6] = test system: Staphylococcus aureus B-685; assay: Sensitivity of strains: suppression of growth; conditions: Compound (1) 1.0%; antibiotics disc method
[7] = test system: Neisseria meningitidis M-6231; assay: Sensitivity of strains: suppression of growth; conditions: Compound (1) 1.0%; antibiotics disc method
[8] = test system: Staphylococcus aureus M-12159; assay: Sensitivity of strains: suppression of growth; conditions: Compound (1) 1.0%; antibiotics disc method
[9] = test system: Neisseria meningitidis M-A72; assay: Sensitivity of strains: suppression of growth; conditions: Compound (1) 1.0%; antibiotics disc method
[10] = test system: Staphylococcus aureus B-674; assay: Sensitivity of strains: suppression of growth; conditions: Compound (1) 1.0%; antibiotics disc method
[11] = test system: β-hemolytic streptococcus B-624; assay: Sensitivity of strains: suppression of growth; conditions: Compound (1) 1.0%; antibiotics disc method
[12] = test system: Yersinia pseudotuberculosis; conditions: Compound (1) 1.0%; antibiotics disc method
[13] = test system: Salmonella typhimurium M-727; assay: Sensitivity of strains: suppression of growth; conditions: Compound (1) 1.0%; antibiotics disc method
[14] = test system: Enterobacter aerogenes B-687; assay: Sensitivity of strains: suppression of growth; conditions: Compound (1) 1.0%; antibiotics disc method
[15] = test system: Conditional pathogenic enterobacteria gram-negative aerobic bacilli; note: key: + sensitive strains; + moderately sensitive strains; − stable strains
Acinetobacter B-677 = assay: Sensitivity of strains: suppression of growth; conditions: Compound (1) 1.0%; antibiotics disc method
[16] = test system: Enterobacter aerogenes B-679; assay: Sensitivity of strains: suppression of growth; conditions: Compound (1) 1.0%; antibiotics disc method
[17] = test system: Pseudomonas aeruginosa B-601; assay: Sensitivity of strains: suppression of growth; conditions: Compound (1) 1.0%; antibiotics disc method
[18] = test system: Staphylococcus epidermidis BK-30; assay: Sensitivity of strains: suppression of growth; conditions: Compound (1) 1.0%; antibiotics disc method
Bacillus sp. B-575 = assay: Sensitivity of strains: suppression of growth; note: key: + sensitive strains; + moderately sensitive strains; − stable strains
[19] = test system: Staphylococcus aureus M-209; assay: Sensitivity of strains: suppression of growth; conditions: Compound (1) 1.0%; antibiotics disc method
Escherichia coli B-683 = assay: Sensitivity of strains: suppression of growth; conditions: Compound (1) 1.0%; antibiotics disc method
Alkaligenes sp. B-667 = assay: Sensitivity of strains: suppression of growth; conditions: Compound (1) 1.0%; antibiotics disc method
[20] = test system: Corynebacterium diphtheriae B-670; assay: Sensitivity of strains: suppression of growth; conditions: Compound (1) 1.0%; antibiotics disc method
[21] = test system: Salmonella paratyphi M-16469; assay: Sensitivity of strains: suppression of growth; conditions: Compound (1) 1.0%; antibiotics disc method

Measured: Suppression of Growth (+/−)

CC1(C)S[C@@H]2[C@H](NC(=O)[C@H](N)c3ccccc3)C(=O)N2[C@H]1C(=O)O [Antibiotic 2, ampicillin]
+: Escherichia coli M-17 | Escherichia coli B-65 | [2] | [4] | [5] | [11] | [17] | [18] | Escherichia coli B-683
−: Alkaligenes sp. B-689 | [1] | Acinetobacter B-681 | [3] | Acinetobacter B-676 | [6] | [7] | [8] | [9] | [10] | [12] | [13] | [14] | [15] | Acinetobacter B-677 | [16] | Bacillus sp. B-575 | [19] | Alkaligenes sp. B-667

CC1(C)S[C@@H]2[C@H](NC(=O)C(C(=O)O)c3ccccc3)C(=O)N2[C@H]1C(=O)O (some centres unmarked) [Antibiotic 4, carbenicillin]
−: Alkaligenes sp. B-689 | [1] | Acinetobacter B-681 | [2] | [3] | [4] | Acinetobacter B-676 | [7] | [20] | [9] | [10] | [12] | [14] | [15] | Acinetobacter B-677 | [16] | Bacillus sp. B-575; Compound (1) 1.0%, antibiotics disc method | Alkaligenes sp. B-667
+: Escherichia coli M-17 | Escherichia coli B-65 | [5] | [6] | [8] | [11] | [17] | [18] | [19] | Escherichia coli B-683

NC[C@H]1O[C@H](O[C@H]2[C@H](O)[C@@H](O[C@H]3O[C@H](CO)[C@@H](O)[C@H](N)[C@H]3O)[C@H](N)C[C@@H]2N)[C@H](O)[C@@H](O)[C@@H]1O [Antibiotic 5, kanamycin]
+: Alkaligenes sp. B-689 | Escherichia coli M-17 | Escherichia coli B-65 | [2] | [6] | [8] | [17] | [19] | Escherichia coli B-683
−: [1] | Acinetobacter B-681 | [3] | [4] | Acinetobacter B-676 | [5] | [7] | [20] | [9] | [10] | [11] | [12] | [14] | [15] | Acinetobacter B-677 | [16] | [18] | Alkaligenes sp. B-667

CN(C)[C@@H]1C(=O)C(C(N)=O)=C(O)[C@@]2(O)C(=O)C3=C(O)c4c(O)cccc4[C@@](C)(O)[C@H]3C[C@@H]12 [Antibiotic 13, tetracycline]
−: Alkaligenes sp. B-689 | [1] | Acinetobacter B-681 | [3] | [4] | Acinetobacter B-676 | [5] | [6] | [7] | [8] | [9] | [11] | [12] | [14] | Acinetobacter B-677 | [16] | [18] | [19] | Alkaligenes sp. B-667
+: Escherichia coli M-17 | Escherichia coli B-65 | [20] | [10] | [17] | Bacillus sp. B-575 | Escherichia coli B-683

polymixin [Antibiotic 9]
+: Escherichia coli M-17 | Escherichia coli B-65 | [14] | [16] | [17] | [19] | Escherichia coli B-683 | Alkaligenes sp. B-667
−: [21] | Alkaligenes sp. B-689 | [1] | Acinetobacter B-681 | [3] | [4] | Acinetobacter B-676 | [5] | [6] | [7] | [20] | [8] | [9] | [10] | [11] | [12] | [15] | Acinetobacter B-677 | [18] | Bacillus sp. B-575
